Assay results reported in patent US8858952B2, “Methods and materials for generating T cells” (Mayo Foundation for Medical Education and Research, priority 2009, dated 2014).

Key:
CD4 T cells = assay: Proliferation assay of CD4 and CD8 T cells from FR74-immunized mice; type: cell-based; settings: but not CD8 T cells, from FR74-immunized FVB mice, FIG. 3A
Experimental: FIG. 3A is a plotting the stimulation indices from a proliferation assay in which CD4 and CD8 T cells from FR74-immunized mice were tested for response to non-specific stimulation (PHA), FR74 polypeptide, or an irrelevant polypeptide (Irrel pep). The stimulation index is the ratio of the thymidine incorporation in the sample with antigen and the controls ample. FIG. 3B is a graph plotting results of an IFN-γELlspot (enzyme-linked immunosorbent spot) analysis of FR74-specific T cell lines stimulated in vitro with dendritic cells (DC) pulsed with either FR74 polypeptide, FRα-overexpressing tumor cell lysate (MMC lysate), or an irrelevant polypeptide antigen (Irrel pep). Each bar is the mean (±s.e.m.) of 3 replicates.
The FR74 polypeptide can activate CD4 T cells in FVB and B6 mice, and it is naturally processed.

[1] = Immunogenicity of FR74 used as a vaccine with adjuvant; type: in vivo; settings: with complete Freund's adjuvant (CFA), CpG, or GM-CSF
From the text: A native helper epitope designated FR74 was a peptide derived from the folate receptor alpha (FRα) (FIG. 2). FRα (also referred to as folate binding protein) is a glycophosphatidyl-anchored membrane glycoprotein that mediates cellular uptake of folate. This polypeptide is over-expressed on many cancers at levels of up to 80-90-fold relative to the levels observed on normal tissues. FRα is an antigen that can be used across strains, which allows one to test various strategies amongst many different I-A and I-E backgrounds. […] FR74 was modified at the amino-terminus end with an Ii-key and at the carboxy terminus with a DC3 amino acid motif (FIG. 2). To reduce enzymatic degradation in cell culture, the amino terminus of FR74 was acetylated to make FR74.1. FR74.2 is FR74 conjugated to Ii-key. It is attached with a flexible, noncleavable linker FR74.3 is FR74 conjugated to a DC3 polypeptide using a furin sensitive linker to permit cleavage. Furin is an endopeptidase that normally proteolytically activates a large number of proproteins in the cell, and it is predominantly localized to the […] (Thomas, G., Nat. Rev. Mol. Cell Biol., 3(10):753-66 (2002)). FR74.4 is a dual conjugated polypeptide. All modified peptides were acetylated at the amino terminus to prevent degradation.

FR74-specific T cells = assay: IFN-γ ELIspot of T cell cultures generated ex vivo with polypeptide-pulsed DC; type: cell-based, FVB/N mice
Experimental: FIG. 4 is a graph plotting the results an IFN-γ ELIspot analyses of T cell cultures incubated with the indicated polypeptides. Epitope nesting greatly augments the numbers of antigen-specific T cells. T cells were tested in ELIspot against native FR74 polypeptide at various concentrations. Each data point is the mean of 3 determinations.
FIG. 6. FR74-specific T cells generated with modified polypeptides recognized tumor lysates. […] Each bar is the mean (±s.e.m.) of 3 replicates.
FIG. 7. […] The T cells were generated at varying concentrations of polypeptides (x-axis). Each point is the mean (±s.e.m.) of 3 replicates.
In terms of proliferation, only the dual modified polypeptide was able to generate T cells that were able to proliferate at 10^−9 g/mL (FIG. 5).
In order to determine whether furin cleavage is required, two methods are used: furin insensitive linkers and furin inhibitors. Blockade of enhanced ex vivo expansion mediated by the DC3 peptide using these two methods is powerful evidence, outside of a furin knockout mouse, that furin is required for the actions of DC3. Although it has already been shown that DC3 must be linked to antigen, as a control T cells are expanded using free FR74 mixed with free DC3. To test the role of furin with furin-insensitive linkers, RARR (SEQ ID NO:4) is replaced with VRVV (SEQ ID NO:41) with the polypeptides FR74.1, FR74.3, and FR74.8 as shown in FIG. 17. In parallel with these cultures, cultures are included in which inhibitors are included. The stoichiometric peptidyl inhibitor decanoyl-Arg-Val-Lys-Arg-CH2CL (SEQ ID NO:42) and α1-antitrypsin Portland, which are the two most commonly used inhibitors, are employed. […] Cultures are examined over a range of concentrations of inhibitors and assayed as described with ELIspot and proliferation assays. To generate Th cells, CD4^+ T cells are purified by incubation of splenocytes with anti-CD4^+ MACS microbeads (Miltenyi, Auburn, Calif.) for 20 minutes at 4° C., followed by positive selection of CD4^+ T cells using an AutoMACS automatic magnetic cell sorter according to the manufacturer's specifications. Th cell lines are established with bone marrow derived DC at a concentration of 5×10^4 T cells/mL in 24-well tissue culture-treated plates in complete medium on day 0. To derive the dendritic cells (DCs), bone marrow is harvested from the long bones of FVB/N mice and seeded in 6-well plates (3×10^6/well) in complete media with murine GM-CSF (10 ng/mL) and IL-4 (1 ng/mL). Media and cytokines are replaced after 3 days. On day 5, CPG is added to the cultures at 1 μg/mL, and the cells are ready for T cell induction on day 6. The tissue culture-generated DC are pulsed with 10 μg/mL FR74 peptide or its modifications and 10 μg/mL B7DC-crosslinking antibody at 37° C. for 4 hours. In these experiments, constant mass is maintained. Next, the peptide-loaded DC are washed with media, and the CD4+ T cells are added, and on days 8 and 10, IL-2 (50 U/mL) is added. On day 15, cells are assayed. For the ELIspot analysis, anti-IFN-γ (Pharmingen) antibody is added to a 96-well nitrocellulose-backed plate (NC-plate, Millipore) at 50 μL/well at a concentration of 10 μg/mL in PBS and incubated overnight at 4° C. The day of analysis, the NC-plate is washed with PBS and blocked for 1-2 hours at 37° C. with PBS/2%BSA. After blocking, the plate are again washed. The Th cells are transferred to the antibody-coated plates. Syngeneic naïve CD4 T cells alone without peptide antigen are used as the negative control. Th cells are seeded at 5×10^4 cells/well with a range of native (i.e., FR74) peptide, irrelevant peptide, FRαMMC tumor lysate, irrelevant tumor lysate, media or concanavalin A. Irradiated syngeneic splenocytes are added at 1 ×10^5 cells/well as antigen-presenting cells. The plate is incubated at 37° C. for 24 hours. The plate are washed with PBS/0.05% Tween-20, and 100 μL/well biotinylated anti-IFN-γ(5 μg/mL, Pharmingen) antibody are added to each well. […]

furin = furin (Homo sapiens, UniProt P09958); settings: cited from earlier work
Chain of furin (P09958 108-794, species assumed): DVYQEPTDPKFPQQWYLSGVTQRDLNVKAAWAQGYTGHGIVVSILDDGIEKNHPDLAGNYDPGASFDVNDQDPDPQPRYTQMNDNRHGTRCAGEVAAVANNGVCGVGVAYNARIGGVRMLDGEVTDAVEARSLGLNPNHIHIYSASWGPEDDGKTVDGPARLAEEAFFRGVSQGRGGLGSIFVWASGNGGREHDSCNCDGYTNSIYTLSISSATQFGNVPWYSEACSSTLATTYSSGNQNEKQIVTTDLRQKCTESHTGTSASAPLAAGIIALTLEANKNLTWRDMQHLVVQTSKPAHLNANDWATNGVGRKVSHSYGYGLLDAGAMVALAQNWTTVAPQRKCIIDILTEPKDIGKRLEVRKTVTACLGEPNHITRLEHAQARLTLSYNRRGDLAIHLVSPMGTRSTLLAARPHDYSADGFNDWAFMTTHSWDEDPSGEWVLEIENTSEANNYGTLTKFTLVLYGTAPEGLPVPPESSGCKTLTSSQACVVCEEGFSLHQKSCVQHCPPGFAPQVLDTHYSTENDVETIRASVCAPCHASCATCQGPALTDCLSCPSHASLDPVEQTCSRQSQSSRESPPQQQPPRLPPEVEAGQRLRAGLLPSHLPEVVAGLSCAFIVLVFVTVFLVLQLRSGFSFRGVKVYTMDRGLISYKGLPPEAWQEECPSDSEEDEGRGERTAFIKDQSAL

Th cells = assay: Cytokine secretion and Th subsets of T cell cultures under varied culture conditions; type: cell-based
Experimental: FIG. 19. […] Cytokines were measured following stimulation of cells with splenocytes pulsed with either no antigen (open bars) or native FR74 polypeptide. To avoid contamination of cell culture supernatants with splenocyte-derived cytokines, the T cells were purified from the splenocytes prior to incubation to measure cytokines Each bar is the mean (±s.e.m.) of duplicate samples. Results are representative of 2 experiments.
FIG. 20. Manipulation of culture conditions can reduce levels of IL-5 and IL-10 secreting Th cells. Shown are the concentrations of IL-5 and IL-10 within T-cell culture media following simulation of Th cells with or without peptide antigen. Each bar is the mean (±s.e.m.) of duplicate samples.
FIG. 25. Manipulation of culture conditions can reduce levels of IL-5 secreting T cells. Shown are the concentrations of IL-5 within T cell culture media following stimulation of Th cells with or without polypeptide antigen. Each bar is the mean (±s.e.m.) of duplicate samples.
FIG. 26. […] Shown are the concentrations of IL-17 within T cell culture media following simulations of Th cells with or without polypeptide antigen. Each bar is the mean (±s.e.m.) of duplicate samples.
Another item is that Th subset skewing may occur which could cloud interpretations of the polypeptide modifications. […]

Question: Which results are given for KDISYLYRFNWNHCG [FR74]?
Answer: proliferation in response to the FR74 polypeptide (stimulation index) (CD4 T cells): increased proliferation; immunogenicity as a vaccine [1]: highly immunogenic; recognition of FRα+ tumor lysates (MMC) pulsed onto DC by FR74-specific T cell lines (FR74-specific T cells; IFN-γ ELIspot, FIG. 3B): recognize FRα^+ tumor lysates; immunogenicity when used to generate T cell lines (FR74-specific T cells; using activated DC): relatively non-immunogenic

Question: Which selectivity for furin (furin) does the source give for decanoyl-Arg-Val-Lys-Arg-CH2CL here?
Answer: The selectivity for furin was “not selective”.

Question: With α1-antitrypsin as the molecule, how does the selectivity for furin (furin) read?
Answer: Its selectivity for furin is “highly selective for furin”.

Question: And the Ki (furin; furin)?
Answer: The Ki was 0.6 nM.

B1: IFN-γ: cytokine included in T cell culture (protein, UniProt P01579 24-161, looked up)
Interferon gamma: QDPYVKEAENLKKYFNAGHSDVADNGTLFLGILKNWKEESDRKIMQSQIVSFYFKLFKNFKDDQSIQKSVETIKEDMNVKFFNSNKKKRDDFEKLTNYSVTDLNVQRKAIHELIQVMAELSPAAKTGKRKRSQMLFRG
Question: Which “generation of IL-17-secreting Th cells” value (Th cells; FIG. 26) does the source give for B1 here?
Answer: The value was “blocks generation of IL-17-secreting Th cells”.

Question: What about the “Th2 effectors (IL-5) in FR74.4 cultures” value (Th cells; cells incubated with FR74.4 with DC and IL-2, FIG. 25) of the same molecule?
Answer: Its value is “completely blocked”.
